# Activity calls are given as the source filed them. The rule behind the calls is not given here.
# Legend:
# [1] = MRT last in male C57 mouse at 5 mg/kg, po measured upto 24 hrs; format: ADME, organism-based; conditions: in vivo
# Mus musculus [2] = assay: Antiinflammatory activity in DSS-induced male C57BL/6 mouse model assessed as inhibition of IL-6 level in colon at 50 to 100 microM/Kg; format: functional, organism-based; conditions: dose 50-100 µM/Kg
# [3] = Genotoxicity in Salmonella typhimurium by Ames test; format: toxicity; conditions: salmonella enterica subsp. enterica serovar typhimurium
# [4] = Toxicity in male Kunming mouse assessed as effect on TG level in serum at 100 to 500 mg/kg/day, po measured after 5 weeks; format: organism-based; conditions: in vivo, 840 h, dose 100-500 mg/kg/day
# [5] = AUC last in male C57 mouse at 5 mg/kg, po measured upto 24 hrs; format: ADME, organism-based; conditions: in vivo
# [6] = Toxicity in female Kunming mouse assessed as effect on heart at 100 to 500 mg/kg/day, po measured after 5 weeks by H and E staining based analysis; format: organism-based; conditions: in vivo, 840 h, dose 100-500 mg/kg/day
# [7] = Half life in male C57 mouse at 1 mg/kg, iv measured upto 24 hrs; format: ADME, organism-based; conditions: in vivo
# [8] = Toxicity in female Kunming mouse assessed as lethal dose administered as po measured after 5 weeks; format: organism-based; conditions: in vivo
# [9] = Tmax in male C57 mouse at 5 mg/kg, po measured upto 24 hrs; format: ADME, organism-based; conditions: in vivo
# [10] = AUC last in male C57 mouse at 1 mg/kg, iv measured upto 24 hrs; format: ADME, organism-based; conditions: in vivo
# [11] = Toxicity in female Kunming mouse assessed as effect on TG level in serum at 100 to 500 mg/kg/day, po measured after 5 weeks; format: organism-based; conditions: in vivo, 840 h, dose 100-500 mg/kg/day
# [12] = Apparent volume of distribution in male C57 mouse at 1 mg/kg, iv measured upto 24 hrs; format: ADME, organism-based; conditions: in vivo, read-out: Vz
# [13] = AUC infinity in male C57 mouse at 1 mg/kg, iv measured upto 24 hrs; format: ADME, organism-based; conditions: in vivo
# B-cell line = assay: Immunosuppressive activity in mouse B-lymphocyte assessed as reduction in LPS-induced cell proliferation incubated for 48 hrs; format: functional, cell-based
# [14] = Toxicity in male Kunming mouse assessed as effect on heart to body weight ratio at 100 to 500 mg/kg/day, po measured after 5 weeks; format: organism-based; conditions: in vivo, 840 h, dose 100-500 mg/kg/day
# [15] = AUC infinity in male C57 mouse at 5 mg/kg, po measured upto 24 hrs; format: ADME, organism-based; conditions: in vivo
# Mus musculus [16] = assay: Antiinflammatory activity in DSS-induced male C57BL/6 mouse model of inflammatory bowel disease assessed as recovery in colon length at 40 mg/kg/day, po measured after 7 days relative to control; format: functional; conditions: time 7 day
# [17] = Toxicity in female Kunming mouse assessed as effect on CK level in serum at 100 to 500 mg/kg/day, po measured after 5 weeks; format: organism-based; conditions: in vivo, 840 h, dose 100-500 mg/kg/day
# [18] = Half life in male C57 mouse at 5 mg/kg, po measured upto 24 hrs; format: ADME, organism-based; conditions: in vivo
# [19] = Apparent volume of distribution in male C57 mouse at 5 mg/kg, po measured upto 24 hrs; format: ADME, organism-based; conditions: in vivo
# [20] = Cytotoxicity against mouse Splenocyte by MTT assay; format: toxicity, cell-based; conditions: splenocytes
# Mus musculus [21] = assay: Antiinflammatory activity in DSS-induced male C57BL/6 mouse model of inflammatory bowel disease assessed as recovery from body weight loss at 40 mg/kg/day, po measured after 7 days; format: functional, organism-based; conditions: time 7.0 day
# [22] = Immunosuppressive activity in mouse T-lymphocyte assessed as reduction in concanavalin A-induced cell proliferation incubated for 48 hrs; format: functional, cell-based
# [23] = Toxicity in female Kunming mouse assessed as effect on spleen at 100 to 500 mg/kg/day, po measured after 5 weeks by H and E staining based analysis; format: organism-based; conditions: in vivo, 840 h, dose 100-500 mg/kg/day
# [24] = Oral bioavailability in male C57 mouse at 5 mg/kg measured upto 24 hrs; format: ADME, organism-based; conditions: in vivo
# [25] = Toxicity in female Kunming mouse assessed as effect on ALT level in serum at 100 to 500 mg/kg/day, po measured after 5 weeks; format: organism-based; conditions: in vivo, 840 h, dose 100-500 mg/kg/day
# [26] = Toxicity in male Kunming mouse assessed as effect on heart at 100 to 500 mg/kg/day, po measured after 5 weeks by H and E staining based analysis; format: organism-based; conditions: in vivo, 840 h, dose 100-500 mg/kg/day
# [27] = Selectivity ratio of CC50 for cytotoxicity against mouse Splenocyte to IC50 for immunosuppressive activity in mouse B-lymphocyte; format: toxicity; conditions: splenocytes (CC50) and B-lymphocytes (IC50)
# Mus musculus [28] = assay: Antiinflammatory activity in DSS-induced male C57BL/6 mouse model of inflammatory bowel disease assessed as downregulation of MyD88 expression at 50 to 100 microM/Kg by Western blot analysis; format: functional, organism-based; conditions: dose 50-100 µM/Kg
# [29] = Toxicity in male Kunming mouse assessed as effect on liver at 100 to 500 mg/kg/day, po measured after 5 weeks by H and E staining based analysis; format: organism-based; conditions: in vivo, 840 h, dose 100-500 mg/kg/day
# Mus musculus [30] = assay: Antiinflammatory activity in DSS-induced male C57BL/6 mouse model of inflammatory bowel disease assessed as recovery from body weight loss at 40 mg/kg/day, po measured after 7 days relative to control; format: functional; conditions: time 7 day
# [31] = Toxicity in male Kunming mouse assessed as effect on kidney to body weight ratio at 100 to 500 mg/kg/day, po measured after 5 weeks; format: organism-based; conditions: in vivo, 840 h, dose 100-500 mg/kg/day
# [32] = MRT last in male C57 mouse at 1 mg/kg, iv measured upto 24 hrs; format: ADME, organism-based; conditions: in vivo
# [33] = Clearance in male C57 mouse at 1 mg/kg, iv measured upto 24 hrs; format: ADME, organism-based; conditions: in vivo
# [34] = Selectivity ratio of CC50 for cytotoxicity against mouse Splenocyte to IC50 for immunosuppressive activity in mouse T-lymphocyte; format: toxicity; conditions: splenocytes (CC50) and T-lymphocytes (IC50)
# [35] = Clearance in male C57 mouse at 5 mg/kg, po measured upto 24 hrs; format: ADME, organism-based; conditions: in vivo
# [36] = Toxicity in female Kunming mouse assessed as effect on K inorganic salt level in serum at 100 to 500 mg/kg/day, po measured after 5 weeks; format: organism-based; conditions: in vivo, 840 h, dose 100-500 mg/kg/day
# [37] = Toxicity in male Kunming mouse assessed as effect on T-CHO level in serum at 100 to 500 mg/kg/day, po measured after 5 weeks; format: organism-based; conditions: in vivo, 840 h, dose 100-500 mg/kg/day
# [38] = Cmax in male C57 mouse at 5 mg/kg, po measured upto 24 hrs; format: ADME, organism-based; conditions: in vivo
# Mus musculus [39] = assay: Antiinflammatory activity in DSS-induced male C57BL/6 mouse model of inflammatory bowel disease assessed as downregulation of TRAF6 expression at 50 to 200 microM/Kg by Western blot analysis; format: functional, organism-based; conditions: dose 50-200 µM/Kg
# Mus musculus [40] = assay: Antiinflammatory activity in DSS-induced male C57BL/6 mouse model of inflammatory bowel disease assessed as amelioration of infiltration of inflammatory cells at 50 to 200 microM/Kg by H and E staining based analysis; format: functional, organism-based; conditions: dose 50-200 µM/Kg
# Mus musculus [41] = assay: Antiinflammatory activity in DSS-induced male C57BL/6 mouse model assessed as increase in IL-10 level in colon at 50 to 200 microM/Kg; format: functional, organism-based; conditions: dose 50-200 µM/Kg
# Mus musculus [42] = assay: Antiinflammatory activity in DSS-induced male C57BL/6 mouse model assessed as inhibition of IL-22 level in colon at 50 to 200 microM/Kg; format: functional, organism-based; conditions: dose 50-200 µM/Kg
# Mus musculus [43] = assay: Antiinflammatory activity in DSS-induced male C57BL/6 mouse model of inflammatory bowel disease assessed as reduction of bloody stool at 15 to 60 mg/kg/day, po via gavage measured upto 14 days; format: functional, organism-based; conditions: dose 15-60 mg/kg/day, time <= 14.0 day
Structure (SMILES),MRT last at 24 h [1] [min],AUC(0-t) at 24 h [5] [ng·h/mL],half-life [7] [min],Tmax [9] [min],AUC(0-t) at 24 h [10] [ng·h/mL],Vd [12] [L/kg],AUC(0-inf) [13] [ng·h/mL],IC50 (B-cell line) [µM],AUC(0-inf) [15] [ng·h/mL],Activity (Mus musculus [16]) [%],Vz [19] [L/kg],CC50 [20] [µM],Activity (Mus musculus [21]),IC50 [22] [µM],bioavailability [24] [%],selectivity ratio [27],Activity (Mus musculus [30]) [%],MRT last at 24 h [32] [min],clearance [33] [mL/min/kg],selectivity ratio [34],also measured
CC(=O)OC[C@H]1O[C@@H](OC2=C(C)OC(=C(C)C)C2=O)[C@H](OC(C)=O)[C@@H](OC(C)=O)[C@@H]1OC(C)=O,63.6,58.3,16.2,19.8,32.3,9.25,44,3.15,93.6,33.3,137.3,60,Active,42.9,36.1,22,27,10.2,397,1.44,"Activity (Mus musculus [2]): Active; Activity [3]: Non-toxic; Activity [4]: Non-toxic; Activity [6]: Non-toxic; LD50 at 840 h [8]: > 500 mg/kg; Activity [11]: Non-toxic; Activity [14]: Non-toxic; Activity [17]: Non-toxic; half-life ([18]; male, C57, mouse): 115 min; Activity [23]: Non-toxic; Activity [25]: Non-toxic; Activity [26]: Non-toxic; Activity (Mus musculus [28]): Active; Activity [29]: Non-toxic; Activity [31]: Non-toxic; CL/F ([35]; male, C57, mouse): 915 mL/min/kg; Activity [36]: Non-toxic; Activity [37]: Non-toxic; Cmax [38]: 48.4 ng/mL"
CC(C)=C1OC(C)=C(O[C@@H]2O[C@H](CO)[C@@H](O)[C@H](O)[C@H]2O)C1=O,254,177,27,15,592,1.09,594,85.8,180,50.5,29.6,149,Active,308,6,1.9,45.6,19.8,28.5,0.63,"Activity (Mus musculus [39]): Active; Activity (Mus musculus [40]): Active; t1/2 ([18]; mouse, po, 5 mg/kg, 24 h): 332 min; Activity (Mus musculus [41]): Active; Activity (Mus musculus [42]): Active; Activity (Mus musculus [43]): Active; CL ([35]; mouse, po, 5 mg/kg, 24 h): 475.7 mL/min/kg; Cmax [38]: 284 ng/mL"

# Reference: ChEMBL document CHEMBL6120946, “From Hit to Lead: Discovery of First-In-Class Furanone Glycoside D228 Derived from Chimonanthus salicifolius for the Treatment of Inflammatory Bowel Disease” (J Med Chem, 2024)
